pKi: −log10 of the molar value.
Columns and labels:
[1] = test system: GR; test: Dexamethasone-induced TAT activity in primary hepatocytes from monkeys; assay type: cell-based
Experimental: Dazucorilant is selective for GR over other nuclear hormone receptors, and a range of other receptors, enzymes, and ion channels. For example, dazucorilant has high selectivity for GR relative to the progesterone receptor (PR), androgen receptor, and estrogen receptor, showing no significant binding to these receptors at a concentration of 10 μM (0%, 1.5% and […], respectively).

[2] = test system: Wobbler mouse; test: Wobbler mouse model of ALS; assay type: in vivo; settings: administration for 21 days
[3] = molecular target: T1, GR (Homo sapiens, UniProt P04150); test: Inhibition of dexamethasone effect on TAT activity, human liver carcinoma cell line; assay type: cell-based; design: endogenous in cells; host or cells: human liver carcinoma cell line (probably HepG2, inferred); settings: read-out: Ki, inhibition of dexamethasone effects on TAT activity
T1 sequence (P04150 1-777): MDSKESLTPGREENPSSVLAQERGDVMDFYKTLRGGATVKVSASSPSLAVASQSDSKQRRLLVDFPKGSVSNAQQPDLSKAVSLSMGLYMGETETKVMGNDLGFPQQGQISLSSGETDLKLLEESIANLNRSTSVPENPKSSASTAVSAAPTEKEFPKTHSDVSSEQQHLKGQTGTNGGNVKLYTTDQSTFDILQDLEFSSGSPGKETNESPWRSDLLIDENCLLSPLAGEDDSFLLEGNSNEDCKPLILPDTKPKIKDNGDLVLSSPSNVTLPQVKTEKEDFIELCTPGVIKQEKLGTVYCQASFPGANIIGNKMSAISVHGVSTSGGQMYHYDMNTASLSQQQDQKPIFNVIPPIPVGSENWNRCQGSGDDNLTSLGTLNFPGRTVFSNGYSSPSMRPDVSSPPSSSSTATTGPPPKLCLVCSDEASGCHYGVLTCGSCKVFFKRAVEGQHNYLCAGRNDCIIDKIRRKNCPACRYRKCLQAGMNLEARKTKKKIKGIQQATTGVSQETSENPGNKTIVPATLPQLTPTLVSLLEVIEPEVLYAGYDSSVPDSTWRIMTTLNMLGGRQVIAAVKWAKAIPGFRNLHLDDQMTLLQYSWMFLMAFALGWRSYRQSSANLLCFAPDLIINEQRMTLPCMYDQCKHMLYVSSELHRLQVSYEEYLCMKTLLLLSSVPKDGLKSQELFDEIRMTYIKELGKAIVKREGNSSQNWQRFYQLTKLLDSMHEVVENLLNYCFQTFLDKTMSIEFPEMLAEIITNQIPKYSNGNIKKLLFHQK
Source text: The term “glucocorticoid receptor modulator” (GRM) refers to any compound which modulates glucocorticoid binding to GR, or which modulates any biological response associated with the binding of GR to an agonist. For example, a GRM that acts as an agonist, such as dexamethasone, increases the activity of tyrosine aminotransferase (TAT) in HepG2 cells (a human liver hepatocellular carcinoma cell line; ECACC, UK). A GRM that acts as an antagonist, such as mifepristone, decreases the activity of tyrosine aminotransferase (TAT) in HepG2 cells.

[4] = test system: cortisol or ACTH levels; test: First In Human study Part 2, multiple doses: cortisol and ACTH levels; assay type: in vivo; settings: part 2 of the FIH study
Experimental: An adaptive dose, double-blind, placebo-controlled study (NCT04249323, EudraCT 2019-004258-27) was conducted in 110 healthy male and female volunteers (18-60 years old; BMI 18-30 kg/m2; weight≤102 kg; “First In Human” (FIH) study).

[5] = molecular target: T2, progesterone receptor (PR) (Homo sapiens, UniProt P06401); test: Progesterone receptor binding; settings: 10 μM
T2 sequence (P06401 1-933): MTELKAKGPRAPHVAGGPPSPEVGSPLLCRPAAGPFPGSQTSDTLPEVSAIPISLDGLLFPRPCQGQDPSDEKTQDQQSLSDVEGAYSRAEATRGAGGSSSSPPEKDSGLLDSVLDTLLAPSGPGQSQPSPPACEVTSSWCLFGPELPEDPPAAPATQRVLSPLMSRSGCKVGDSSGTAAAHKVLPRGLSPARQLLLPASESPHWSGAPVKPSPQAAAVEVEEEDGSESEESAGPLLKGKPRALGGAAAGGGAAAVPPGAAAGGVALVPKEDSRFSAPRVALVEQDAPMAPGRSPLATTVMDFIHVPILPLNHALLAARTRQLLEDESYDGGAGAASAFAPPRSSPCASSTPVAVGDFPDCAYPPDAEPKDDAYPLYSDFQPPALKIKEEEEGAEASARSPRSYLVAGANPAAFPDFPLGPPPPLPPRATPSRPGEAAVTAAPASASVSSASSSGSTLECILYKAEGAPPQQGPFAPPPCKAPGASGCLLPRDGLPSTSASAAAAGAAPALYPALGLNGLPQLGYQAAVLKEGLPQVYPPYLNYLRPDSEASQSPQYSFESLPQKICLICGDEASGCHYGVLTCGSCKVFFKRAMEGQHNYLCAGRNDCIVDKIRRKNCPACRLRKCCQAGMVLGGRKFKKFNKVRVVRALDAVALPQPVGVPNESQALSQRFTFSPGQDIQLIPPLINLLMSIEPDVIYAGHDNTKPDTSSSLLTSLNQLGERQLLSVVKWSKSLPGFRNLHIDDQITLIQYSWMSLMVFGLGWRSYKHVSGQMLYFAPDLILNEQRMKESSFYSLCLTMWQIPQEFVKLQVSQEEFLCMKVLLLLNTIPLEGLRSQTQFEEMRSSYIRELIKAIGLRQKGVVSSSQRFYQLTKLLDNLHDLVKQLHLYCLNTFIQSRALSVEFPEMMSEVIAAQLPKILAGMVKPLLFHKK

[6] = molecular target: T3, androgen receptor (Homo sapiens, UniProt P10275); test: Androgen receptor binding; settings: 10 μM
T3 sequence (P10275 1-920): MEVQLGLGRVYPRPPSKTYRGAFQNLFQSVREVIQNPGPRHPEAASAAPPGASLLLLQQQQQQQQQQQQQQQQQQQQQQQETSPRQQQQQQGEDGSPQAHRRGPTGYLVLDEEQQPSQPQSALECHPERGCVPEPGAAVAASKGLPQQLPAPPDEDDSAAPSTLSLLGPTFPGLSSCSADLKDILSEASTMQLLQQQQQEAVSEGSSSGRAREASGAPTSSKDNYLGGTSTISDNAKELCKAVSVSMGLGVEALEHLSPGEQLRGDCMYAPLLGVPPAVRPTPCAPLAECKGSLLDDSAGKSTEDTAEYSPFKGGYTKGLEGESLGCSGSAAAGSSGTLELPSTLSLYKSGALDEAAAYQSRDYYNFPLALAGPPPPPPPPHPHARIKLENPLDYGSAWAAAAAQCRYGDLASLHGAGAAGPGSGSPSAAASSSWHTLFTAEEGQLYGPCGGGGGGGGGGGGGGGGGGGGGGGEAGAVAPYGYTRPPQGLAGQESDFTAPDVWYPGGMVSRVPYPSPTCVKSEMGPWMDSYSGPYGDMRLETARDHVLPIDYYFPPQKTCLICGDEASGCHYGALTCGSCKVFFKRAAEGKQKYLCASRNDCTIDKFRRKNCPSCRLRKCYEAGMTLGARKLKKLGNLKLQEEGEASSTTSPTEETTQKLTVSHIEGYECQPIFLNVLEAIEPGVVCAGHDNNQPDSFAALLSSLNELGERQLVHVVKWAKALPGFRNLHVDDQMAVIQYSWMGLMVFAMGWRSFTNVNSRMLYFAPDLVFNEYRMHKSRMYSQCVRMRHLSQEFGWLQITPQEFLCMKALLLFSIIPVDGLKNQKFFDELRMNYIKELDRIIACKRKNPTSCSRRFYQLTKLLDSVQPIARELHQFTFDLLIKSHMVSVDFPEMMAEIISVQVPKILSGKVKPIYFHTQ

**Q.** Which results are given for `O=C(c1ccccn1)[C@]12Cc3cnn(-c4ccc(F)cc4)c3C=C1CCN(S(=O)(=O)c1ccc(C(F)(F)F)cc1)C2` [dazucorilant, (R)-(1-(4-fluorophenyl)-6-((4-(trifluoromethyl)phenyl)sulfonyl)-4,4a, 5,6,7,8-hexahydro-1-H-pyrazolo[3,4-g]isoquinolin-4a-yl) (pyridin-2-yl)methanone]?
**A.** dexamethasone-induced increase in TAT activity [1]: prevented the dexamethasone-induced increase in TAT activity; forepaw atrophy [2]: reducing forepaw atrophy; neurodegeneration and inflammation [2]: inhibiting neurodegeneration and inflammation; performance in the rotarod test [2]: overcoming the impaired performance in the rotarod test; pKi [3]: 7.85; effects on morning or evening cortisol or ACTH levels [4]: no notable effects; binding to progesterone receptor [5]: 0%; binding to androgen receptor [6]: 1.5%

Reference: patent US12433882B2, “Treatments for amyotrophic lateral sclerosis using dazucorilant” (Corcept Therapeutics Incorporated, priority 2022, dated 2025)
